Key:
Assay in all cases: relative viability (nuclei count vs DMSO), 5 days (fraction); higher = more cells survive
201T = test system: 201T
How it was run: (§1)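 The day after seeding in 1536-well plates, lung cancer cell lines were treated by pin tool with a single drug, or with a fixed anchor-drug dose together with five library-drug doses (not always all listed) in √10 steps. After 5 days, a combined fix-and-stain solution (final 0.05% Triton X-100, 1% formaldehyde, 1 ug/ml Hoechst) was added. Nuclei counted on 4× images gave relative viability as treated counts over vehicle counts, reported as the median of duplicate plates.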

BEN = test system: BEN
How it was run: as §1

EPLC-272H = test system: EPLC-272H
How it was run: as §1

HCC-15 = test system: HCC-15
How it was run: as §1

HCC-78 = test system: HCC-78
How it was run: as §1

LCLC-97TM1 = test system: LCLC-97TM1
How it was run: as §1

LU99A = test system: LU99A
How it was run: as §1

NCI-H1355 = test system: NCI-H1355
How it was run: as §1

NCI-H2009 = test system: NCI-H2009
How it was run: as §1

NCI-H2085 = test system: NCI-H2085
How it was run: as §1

NCI-H2126 = test system: NCI-H2126
How it was run: as §1

NCI-H2228 = test system: NCI-H2228
How it was run: as §1

NCI-H23 = test system: NCI-H23
How it was run: as §1

NCI-H2405 = test system: NCI-H2405
How it was run: as §1

NCI-H322M = test system: NCI-H322M
How it was run: as §1

NCI-H460 = test system: NCI-H460
How it was run: as §1

NCI-H647 = test system: NCI-H647
How it was run: as §1

NCI-H650 = test system: NCI-H650
How it was run: as §1

NCI-H661 = test system: NCI-H661
How it was run: as §1

NCI-H838 = test system: NCI-H838
How it was run: as §1

PC-14 = test system: PC-14
How it was run: as §1

Work on `CN1CCN(CCOc2cc(OC3CCOCC3)c3c(Nc4c(Cl)ccc5c4OCO5)ncnc3c2)CC1` [Saracatinib] + C[C@@H](Oc1cc(-c2cnn(C3CCNCC3)c2)cnc1N)c1c(Cl)ccc(F)c1Cl [Crizotinib] (partner 1 µM) yielded a relative viability (201T; first compound 0.02 µM) of 1.05, a relative viability (201T; first compound 0.2 µM) of 0.946 and a relative viability (201T; first compound 0.6325 µM) of 0.962. The relative viability (201T; first compound 2 µM) was 0.862, the relative viability (BEN; first compound 0.02 µM) was 0.77 and the relative viability (BEN; first compound 0.2 µM) was 0.738. It also gave a relative viability (BEN; first compound 0.6325 µM) of 0.911, a relative viability (BEN; first compound 2 µM) of 0.569 and a relative viability (EPLC-272H; first compound 0.02 µM) of 0.96. For the same compound, the relative viability (EPLC-272H; first compound 0.2 µM) was 0.826, the relative viability (EPLC-272H; first compound 0.6325 µM) was 0.779 and the relative viability (EPLC-272H; first compound 2 µM) was 0.729. For the same compound, the relative viability (HCC-15; first compound 0.02 µM) was 0.817, the relative viability (HCC-15; first compound 0.2 µM) was 0.693 and the relative viability (HCC-15; first compound 0.6325 µM) was 0.805. For the same compound, the relative viability (HCC-15; first compound 2 µM) was 0.765, the relative viability (HCC-78; first compound 0.02 µM) was 0.355 and the relative viability (HCC-78; first compound 0.2 µM) was 0.315. For the same compound, the relative viability (HCC-78; first compound 0.6325 µM) was 0.317, the relative viability (HCC-78; first compound 2 µM) was 0.207 and the relative viability (LCLC-97TM1; first compound 0.02 µM) was 0.416. It also gave a relative viability (LCLC-97TM1; first compound 0.2 µM) of 0.268, a relative viability (LCLC-97TM1; first compound 0.6325 µM) of 0.457 and a relative viability (LCLC-97TM1; first compound 2 µM) of 0.316. For the same compound, the relative viability (LU99A; first compound 0.02 µM) was 0.664, the relative viability (LU99A; first compound 0.2 µM) was 0.377 and the relative viability (LU99A; first compound 0.6325 µM) was 0.487. It also gave a relative viability (LU99A; first compound 2 µM) of 0.39, a relative viability (NCI-H1355; first compound 0.02 µM) of 1.06 and a relative viability (NCI-H1355; first compound 0.2 µM) of 1.13. It also gave a relative viability (NCI-H1355; first compound 0.6325 µM) of 1.08, a relative viability (NCI-H1355; first compound 2 µM) of 0.925 and a relative viability (NCI-H2009; first compound 0.02 µM) of 1.03. The relative viability (NCI-H2009; first compound 0.2 µM) was 0.756, the relative viability (NCI-H2009; first compound 0.6325 µM) was 0.896 and the relative viability (NCI-H2009; first compound 2 µM) was 0.691. The relative viability (NCI-H2085; first compound 0.02 µM) was 0.763, the relative viability (NCI-H2085; first compound 0.2 µM) was 0.761 and the relative viability (NCI-H2085; first compound 0.6325 µM) was 0.766. For the same compound, the relative viability (NCI-H2085; first compound 2 µM) was 0.755, the relative viability (NCI-H2126; first compound 0.02 µM) was 0.991 and the relative viability (NCI-H2126; first compound 0.2 µM) was 0.84. The relative viability (NCI-H2126; first compound 0.6325 µM) was 1.02, the relative viability (NCI-H2126; first compound 2 µM) was 0.894 and the relative viability (NCI-H2228; first compound 0.02 µM) was 0.477. The relative viability (NCI-H2228; first compound 0.2 µM) was 0.326, the relative viability (NCI-H2228; first compound 0.6325 µM) was 0.306 and the relative viability (NCI-H2228; first compound 2 µM) was 0.213. It also gave a relative viability (NCI-H23; first compound 0.02 µM) of 0.528, a relative viability (NCI-H23; first compound 0.6325 µM) of 0.557 and a relative viability (NCI-H23; first compound 2 µM) of 0.419. For the same compound, the relative viability (NCI-H2405; first compound 0.02 µM) was 0.854, the relative viability (NCI-H2405; first compound 0.2 µM) was 0.788 and the relative viability (NCI-H2405; first compound 0.6325 µM) was 0.751. It also gave a relative viability (NCI-H2405; first compound 2 µM) of 0.501, a relative viability (NCI-H322M; first compound 0.02 µM) of 0.971 and a relative viability (NCI-H322M; first compound 0.2 µM) of 0.831. The relative viability (NCI-H322M; first compound 0.6325 µM) was 0.916, the relative viability (NCI-H322M; first compound 2 µM) was 0.6 and the relative viability (NCI-H460; first compound 0.02 µM) was 0.97. It also gave a relative viability (NCI-H460; first compound 0.2 µM) of 0.501, a relative viability (NCI-H460; first compound 0.6325 µM) of 0.696 and a relative viability (NCI-H460; first compound 2 µM) of 0.566. The relative viability (NCI-H647; first compound 0.02 µM) was 1.11, the relative viability (NCI-H647; first compound 0.2 µM) was 0.707 and the relative viability (NCI-H647; first compound 0.6325 µM) was 0.704. It also gave a relative viability (NCI-H647; first compound 2 µM) of 0.411, a relative viability (NCI-H650; first compound 0.02 µM) of 0.597 and a relative viability (NCI-H650; first compound 0.2 µM) of 0.643. It also gave a relative viability (NCI-H650; first compound 0.6325 µM) of 0.639, a relative viability (NCI-H650; first compound 2 µM) of 0.622 and a relative viability (NCI-H661; first compound 0.02 µM) of 1.08. It also gave a relative viability (NCI-H661; first compound 0.6325 µM) of 1.03, a relative viability (NCI-H661; first compound 2 µM) of 0.864 and a relative viability (NCI-H838; first compound 0.02 µM) of 0.818. The relative viability (NCI-H838; first compound 0.2 µM) was 0.779, the relative viability (NCI-H838; first compound 0.6325 µM) was 0.608 and the relative viability (NCI-H838; first compound 2 µM) was 0.582. It also gave a relative viability (PC-14; first compound 0.02 µM) of 0.993, a relative viability (PC-14; first compound 0.2 µM) of 0.555 and a relative viability (PC-14; first compound 0.6325 µM) of 0.424. It also gave a relative viability (PC-14; first compound 2 µM) of 0.167.
